Measured values from US10376520B2, “Methods for the treatment of cardiovascular disorders” (Galapagos NV, priority 2015, dated 2019).

System: RA patients
Experiment: Atherogenic index, Study 1 (RA patients, add-on to MTX)
Format: in vivo, human
Conditions: for Atherogenic index Mean percentage CFB - 12 weeks results / Atherogenic index Median CFB - 12 weeks results / Atherogenic index Mean CFB: 2 × 100 mg (b.i.d. group); for atherogenic index variation, decrease compared to pre-treatment baseline: Study 1, after 12 weeks treatment
Method: As used herein, the term ‘atherogenic index’ refers to
Double-blind, placebo-controlled add on study in subjects with moderately to severely active RA who have an inadequate response to methotrexate (MTX) (oral or parenteral).
Compound 1 (dosed as a [Compound 1:HCl:3H2O]) is dosed for twelve weeks once daily (q.d.) (50 mg, 100 mg or 200 mg) or twice daily (b.i.d.) (25 mg, 50 mg or 100 mg); or placebo.
At Week 12, the subjects on placebo who have not achieved 20% improvement in swollen joint count (SJC66) and tender joint count (TJC68) are re-randomized automatically to receive Compound 1 (dosed as a [Compound 1:HCl:3H2O]) either at 100 mg q.d. or 50 mg b.i.d. doses in a blinded fashion; subjects on 50 mg q.d. who have not achieved 20% improvement in SJC66 and TJC68 will be assigned to 100 mg q.d. and subjects on 25 mg b.i.d. that have not achieved a 20% improvement in SJC66 and TJC68 will be assigned to 50 mg b.i.d. Subjects who switch treatment at week 12 are handled as if they discontinued at week 12 for the purpose of statistical analysis, whereas subjects in the other groups will maintain their randomized treatment until Week 24.
The atherogenic index has been identified to be a good predictor of cardiovascular disorders risks and is calculated as follows: […]

[1] = increased from 25 mg b.i.d. to 50 mg b.i.d at 12 weeks, week 1
[2] = increased from 25 mg b.i.d. to 50 mg b.i.d at 12 weeks, week 2
[3] = increased from 25 mg b.i.d. to 50 mg b.i.d at 12 weeks, week 4
[4] = increased from 25 mg b.i.d. to 50 mg b.i.d at 12 weeks, week 8
[5] = increased from 25 mg b.i.d. to 50 mg b.i.d at 12 weeks, week 12
[6] = increased from 25 mg b.i.d. to 50 mg b.i.d at 12 weeks, week 16
[7] = increased from 25 mg b.i.d. to 50 mg b.i.d at 12 weeks, week 20
[8] = increased from 25 mg b.i.d. to 50 mg b.i.d at 12 weeks, week 24
[9] = increased from 50 mg q.d. to 100 mg q.d. at 12 weeks, week 1
[10] = increased from 50 mg q.d. to 100 mg q.d. at 12 weeks, week 2
[11] = increased from 50 mg q.d. to 100 mg q.d. at 12 weeks, week 4
[12] = increased from 50 mg q.d. to 100 mg q.d. at 12 weeks, week 8
[13] = increased from 50 mg q.d. to 100 mg q.d. at 12 weeks, week 12
[14] = increased from 50 mg q.d. to 100 mg q.d. at 12 weeks, week 16
[15] = increased from 50 mg q.d. to 100 mg q.d. at 12 weeks, week 20
[16] = increased from 50 mg q.d. to 100 mg q.d. at 12 weeks, week 24
[17] = placebo switched to 50 mg b.i.d at week 12, week 16
[18] = placebo switched to 50 mg b.i.d at week 12, week 20
[19] = placebo switched to 50 mg b.i.d at week 12, week 24
[20] = placebo switched to 100 mg q.d. at week 12, week 16
[21] = placebo switched to 100 mg q.d. at week 12, week 20
[22] = placebo switched to 100 mg q.d. at week 12, week 24

O=C(Nc1nc2cccc(-c3ccc(CN4CCS(=O)(=O)CC4)cc3)n2n1)C1CC1 [Compound 1, cyclopropanecarboxylic acid {5-[4-(1,1-dioxo-thiomorpholin-4-ylmethyl)-phenyl]-[1,2,4]triazolo[1,5-a]pyridin-2yl}-amide]
Atherogenic index Mean percentage CFB - 12 weeks results (week 2): −5% | Atherogenic index Median CFB - 12 weeks results (week 2): -0.20 mmol/L | Atherogenic index Mean CFB (week 4): -0.30 mmol/L | Atherogenic index Mean percentage CFB - 12 weeks results (week 4): −7% | Atherogenic index Median CFB - 12 weeks results (week 4): -0.30 mmol/L | Atherogenic index Mean CFB (week 8): -0.18 mmol/L | Atherogenic index Mean percentage CFB - 12 weeks results (week 8): −4% | Atherogenic index Median CFB - 12 weeks results (week 8): -0.20 mmol/L | Atherogenic index Mean CFB (week 12): -0.24 mmol/L | Atherogenic index Mean percentage CFB - 12 weeks results (week 12): −5% | Atherogenic index Median CFB - 12 weeks results (week 12): -0.10 mmol/L | atherogenic index variation, decrease compared to pre-treatment baseline (100 mg/bid dose): 0.2 fold | atherogenic index variation, decrease compared to pre-treatment baseline (200 mg q.d.): 0.35 fold | Atherogenic index Mean CFB - 24 weeks results [1]: 0.05 mmol/L | Atherogenic index Mean percentage CFB - 24 weeks results [1]: 3.56% | Atherogenic index Median CFB - 24 weeks results [1]: -0.10 mmol/L | Atherogenic index Mean CFB - 24 weeks results [2]: -0.11 mmol/L | Atherogenic index Mean percentage CFB - 24 weeks results [2]: −1.15% | Atherogenic index Median CFB - 24 weeks results [2]: -0.20 mmol/L | Atherogenic index Mean CFB - 24 weeks results [3]: -0.15 mmol/L | Atherogenic index Mean percentage CFB - 24 weeks results [3]: −3.02% | Atherogenic index Median CFB - 24 weeks results [3]: -0.10 mmol/L | Atherogenic index Mean CFB - 24 weeks results [4]: -0.17 mmol/L | Atherogenic index Mean percentage CFB - 24 weeks results [4]: −3.11% | Atherogenic index Median CFB - 24 weeks results [4]: -0.10 mmol/L | Atherogenic index Mean CFB - 24 weeks results [5]: -0.19 mmol/L | Atherogenic index Mean percentage CFB - 24 weeks results [5]: −2.58% | Atherogenic index Median CFB - 24 weeks results [5]: -0.30 mmol/L | Atherogenic index Mean CFB - 24 weeks results [6]: -0.10 mmol/L | Atherogenic index Mean percentage CFB - 24 weeks results [6]: −0.03% | Atherogenic index Mean CFB - 24 weeks results [7]: -0.26 mmol/L | Atherogenic index Mean percentage CFB - 24 weeks results [7]: −4.14% | Atherogenic index Mean CFB - 24 weeks results [8]: -0.24 mmol/L | Atherogenic index Mean percentage CFB - 24 weeks results [8]: −4.89% | Atherogenic index Median CFB - 24 weeks results [8]: -0.30 mmol/L | Atherogenic index Mean CFB - 24 weeks results [9]: -0.03 mmol/L | Atherogenic index Mean percentage CFB - 24 weeks results [9]: 0.53% | Atherogenic index Median CFB - 24 weeks results [9]: 0.00 mmol/L | Atherogenic index Mean CFB - 24 weeks results [10]: -0.06 mmol/L | Atherogenic index Mean percentage CFB - 24 weeks results [10]: −0.94% | Atherogenic index Median CFB - 24 weeks results [10]: 0.10 mmol/L | Atherogenic index Mean CFB - 24 weeks results [11]: -0.11 mmol/L | Atherogenic index Mean percentage CFB - 24 weeks results [11]: −1.77% | Atherogenic index Median CFB - 24 weeks results [11]: -0.10 mmol/L | Atherogenic index Mean CFB - 24 weeks results [12]: -0.13 mmol/L | Atherogenic index Mean percentage CFB - 24 weeks results [12]: −1.35% | Atherogenic index Median CFB - 24 weeks results [12]: -0.10 mmol/L | Atherogenic index Mean CFB - 24 weeks results [13]: 0.02 mmol/L | Atherogenic index Mean percentage CFB - 24 weeks results [13]: 2.72% | Atherogenic index Median CFB - 24 weeks results [13]: 0.20 mmol/L | Atherogenic index Mean CFB - 24 weeks results [14]: -0.05 mmol/L | Atherogenic index Mean percentage CFB - 24 weeks results [14]: −0.95% | Atherogenic index Median CFB - 24 weeks results [14]: -0.10 mmol/L | Atherogenic index Mean CFB - 24 weeks results [15]: 0.02 mmol/L | Atherogenic index Mean percentage CFB - 24 weeks results [15]: −0.01% | Atherogenic index Median CFB - 24 weeks results [15]: 0.00 mmol/L | Atherogenic index Mean CFB - 24 weeks results [16]: -0.12 mmol/L | Atherogenic index Mean percentage CFB - 24 weeks results [16]: −2.40% | Atherogenic index Median CFB - 24 weeks results [16]: 0.00 mmol/L | Atherogenic index Mean CFB - 24 weeks results [17]: -0.47 mmol/L | Atherogenic index Mean percentage CFB - 24 weeks results [17]: −4.74% | Atherogenic index Median CFB - 24 weeks results [17]: -0.10 mmol/L | Atherogenic index Mean CFB - 24 weeks results [18]: -0.39 mmol/L | Atherogenic index Mean percentage CFB - 24 weeks results [18]: −6.13% | Atherogenic index Median CFB - 24 weeks results [18]: -0.20 mmol/L | Atherogenic index Mean CFB - 24 weeks results [19]: -0.45 mmol/L | Atherogenic index Mean percentage CFB - 24 weeks results [19]: −8.32% | Atherogenic index Median CFB - 24 weeks results [19]: -0.30 mmol/L | Atherogenic index Mean CFB - 24 weeks results [20]: -0.07 mmol/L | Atherogenic index Mean percentage CFB - 24 weeks results [20]: −0.54% | Atherogenic index Mean CFB - 24 weeks results [21]: -0.12 mmol/L | Atherogenic index Mean percentage CFB - 24 weeks results [21]: −1.77% | Atherogenic index Mean CFB - 24 weeks results [22]: -0.12 mmol/L | Atherogenic index Mean percentage CFB - 24 weeks results [22]: −3.43%
